Test results: US20100249064A1, “METHODS AND COMPOSITIONS FOR TREATING DISEASES AND CONDITIONS INVOLVING HIGHER MOLECULAR WEIGHT HYALURONAN” (University of Chicago, priority 2007, published 2010)

Experiments:
[1] = test system: Human pulmonary artery EC; assay: Transendothelial electrical resistance (TER) of HA-treated EC monolayers, Example 1; type: cell-based; conditions: 5 mM MβCD or 10 μg/ml anti-CD44 (IM-7) antibody, 100 nM High or Low MW HA
Description: (§1) Measurement of TransEC Electrical Resistance (TER)—EC were grown to confluence in polycarbonate wells containing evaporated gold microelectrodes. TER measurements were performed using an electrical cell-substrate impedance sensing system (Applied Biophysics, Troy, N.Y.) as described (Garcia et al., 2001). TER values from each microelectrode were pooled at discrete time points and plotted versus time as the mean±S.E.

[2] = test system: Human pulmonary artery EC; assay: Cortical actin (phalloidin) staining and quantitation; type: cell-based; conditions: MβCD one hour prior to 100 nM High MW HA for 30 min
Description: Immunofluorescence Microscopy and Cortical Actin Quantitation—Polymerized actin rearrangement was assessed first with Texas Red-conjugated phalloidin (Invitrogen (Molecular Probes), Eugene, Oreg.) and then analyzed using a Nikon Eclipse TE 300 microscope as described (Garcia et al., 2001). ImageQuant™ software (Amersham Biosciences Corp. (Piscataway, N.J.)) was used to analyze the computer recorded .tiff images. A standardized average grey value (SAGV) was generated for total phalloidin staining versus cortical phalloidin staining for each cell (Singleton et al., 2005). The following equation was used to calculate percent cortical actin staining: ((cortical actin SAGV×area) divided by (total actin SAGV×area))×100. At least ten cells per sample were analyzed. Experiments were performed in triplicate.
Immunofluorescence Microscopy. EC were serum-starved for one hour prior to the addition of 100 nM high MW HA. EC were then fixed in 4% paraformaldehyde, permeablized with ethanol and incubated with specific protein or interest primary antibody for 30 min followed by either FITC or Texas Red-conjugated secondary (Invitrogen (Molecular Probes), Eugene, Oreg.) and analyzed using a Nikon Eclipse TE 300 microscope as described (Garcia et. al., 2001).

[3] = test system: Human pulmonary microvascular EC (HPMVEC); assay: EC electrical resistance (TER), HGF; type: cell-based; conditions: 5 mM MβCD 30 min prior to 25 ng/ml HGF
Description: as §1, with “EC” for “TransEC”, “Resistance—EC” for “Resistance (TER)—EC”, “microelectrodes, and” for “microelectrodes.”, “obtained from Applied Biophysics (Troy,” for “(Applied Biophysics, Troy,”

Rac1 = Rac1 activation assay, HGF; type: cell-based, human; conditions: 5 mM MβCD prior to 25 ng/ml HGF
Description: Rac1 Activation Assay—Rac1 activity assays were performed as described (Ren et al., 1999) in human lung EC.

Human pulmonary EC [4] = assay: TER, Example 5; type: cell-based; conditions: MβCD or IM-7 antibody
Description: (§2) Measurement of TransEC Electrical Resistance (TER). EC were grown to confluence in polycarbonate wells containing evaporated gold microelectrodes, and TER measurements performed using an electrical cell-substrate impedance sensing system (Applied Biophysics, Troy, N.Y.) as previously described (Garcia et al., 2001). TER values from each microelectrode were pooled at discrete time points and plotted versus time as the mean±S.E.

Tiam1 = biological target: T1, Tiam1 (human, UniProt Q13009 2-1591, limits assumed); assay: immunoprecipitation of dynamin 2 from CEM fractions of human EC, immunoblot with anti-Tiam1
T1 construct: Endogenous protein in CEM fractions; also called T-lymphoma invasion and metastasis gene 1
Description: Immunoprecipitation and Immunoblotting—Cellular materials from treated or untreated HPMVEC were incubated with IP buffer (50 mM HEPES (pH 7.5), 150 mM NaCl, 20 mM MgCl₂, 1% Nonidet P-40 (NP-40), 0.4 mM Na₃VO₄, 40 mM NaF, 50 μM okadaic acid, 0.2 mM phenylmethylsulfonyl fluoride, 1:250 dilution of Calbiochem protease inhibitor mixture 3). Following immunoprecipitation with either anti-CD44 or anti-dynamin 2 IgG, the samples were subjected to SDS-PAGE in 4-15% polyacrylamide gels, transferred onto Immobilon™ membranes, and developed with specific primary and secondary antibodies. Enhanced chemiluminescence (Amersham Biosciences) was used to visualize immunoreactive bands. In some instances, standardized average grey values (S.A.G.V., processed from ImageQuant™ software (Amersham Biosciences)) were obtained for immunoreactive bands for quantification.
Role of Tiam1, cortactin and dynamin 2 in HGF/c-Met-mediated human EC barrier enhancement. Since CD44 appears to regulate HGF-induced EC barrier enhancement (FIG. 12), whether Tiam1, cortactin and/or dynamin 2 were involved in HGF-induced increases in EC barrier integrity was examined. […] Silencing CD44 (siRNA) expression attenuated the HGF-induced recruitment of these molecules to CEM (FIG. 13-B); silencing either Tiam1 or dynamin 2 expression abolished cortactin localization to CEM (FIG. 14-A and -B). […]

Human pulmonary EC [5] = assay: TER, HABP2/C1INH regulation of EC barrier function (Examples 3 and 6); type: cell-based; conditions: purified C1INH; 1.0 μg/ml LPS, 100 nM HA, 10 μg/ml HABP2
Description: as §2, with “transendothelial monolayer electrical resistance” for “TransEC Electrical Resistance”, “obtained from Applied Biophysics (Troy,” for “(Applied Biophysics, Troy,”, “described in detail” for “described”, “al.” for “al.,”
Determination of EC barrier function. Human pulmonary endothelial cells were grown to confluence in polycarbonate wells containing evaporated gold microelectrodes (surface area, 10-3 cm^2) in series with a large gold counter electrode (1 cm^2) connected to a phase-sensitive lock-in amplifier as described previously. Measurements of transendothelial electrical resistance (TER) were performed using an electrical cell-substrate impedance sensing system (ECIS) (Applied BioPhysics Inc.). Briefly, current was applied across the electrodes by a 4,000-Hz AC voltage source with amplitude of 1 V in series with a 1 MS/resistance to approximate a constant current source (˜1 μA). The in-phase and out-of-phase voltages between the electrodes were monitored in real time with the lock-in amplifier and subsequently converted to scalar measurements of transendothelial impedance, of which resistance was the primary focus. TER was monitored for 30 minutes to establish a baseline resistance (R0) which, for pulmonary endothelium, was typically between 8 to 12×10^3Ω (wells with R0<7×10^3Ω were rejected). As cells adhere and spread out on the microelectrode, TER increases (maximal at confluence), whereas cell retraction, rounding, or loss of adhesion was reflected by a decrease in TER. These measurements provide a highly sensitive biophysical assay that indicates the state of cell shape and focal adhesion. Values from each microelectrode were pooled at discrete time points and plotted versus time as the mean±SE of the mean (Garcia et al., 2001).

[6] = biological target: T2, HABP2, murine (mouse lung) (mouse, UniProt Q8K0D2 24-558, limits assumed); assay: anti-HABP2 immunoprecipitation of mouse lung homogenates, non-reducing SDS-PAGE, immunoblot
T2 construct: Immunoprecipitated with anti-HABP2 antibody from mouse lung homogenates; also called murine HABP2
Description: FIG. 24 Analysis of HABP2 and C1INH expression and complex formation in murine lungs with or without LPS treatment and effective silencing of HABP2 expression in murine lungs. Panel A—Male B6129N2 mice (8-10 weeks) were anesthetized with intraperitoneal ketamine (150 mg/kg) and acetylpromazine (15 mg/kg) before exposure of the right internal jugular vein via neck incision. LPS (2.5 mg/kg) or water (control) were instilled […]. The animals were allowed to recover for 24 hours after LPS before lung extraction. Extracted lungs were homogenized, N=6 samples per condition were pooled, run on SDS-PAGE and immunoblotted with anti-HABP2 (1), anti-C1INH (2) or anti-actin (3) antibody. Panel B—Homogenized lung samples as described in Panel A were immunoprecipitated with anti-HABP2 antibody, run on non-reducing SDS-PAGE and immunoblotted with either anti-HABP2 or anti-C1INH antibody. The upper arrow indicates an SDS-stable complex between HABP2 and C1INH. The lower arrow indicates the free (active) faun of HABP2. Panel C—Male B6129N2 mice (8-10 weeks) were anesthetized with intraperitoneal ketamine (150 mg/kg) and acetylpromazine (15 mg/kg) before exposure of the right internal jugular vein via neck incision. 10 mg/kg in vivo stable scramble siRNA (control) or HABP2 siRNA (Dharmacon) were instilled intravenously through the internal jugular vein. […]

T1 sequence (Q13009 2-1591 limits assumed): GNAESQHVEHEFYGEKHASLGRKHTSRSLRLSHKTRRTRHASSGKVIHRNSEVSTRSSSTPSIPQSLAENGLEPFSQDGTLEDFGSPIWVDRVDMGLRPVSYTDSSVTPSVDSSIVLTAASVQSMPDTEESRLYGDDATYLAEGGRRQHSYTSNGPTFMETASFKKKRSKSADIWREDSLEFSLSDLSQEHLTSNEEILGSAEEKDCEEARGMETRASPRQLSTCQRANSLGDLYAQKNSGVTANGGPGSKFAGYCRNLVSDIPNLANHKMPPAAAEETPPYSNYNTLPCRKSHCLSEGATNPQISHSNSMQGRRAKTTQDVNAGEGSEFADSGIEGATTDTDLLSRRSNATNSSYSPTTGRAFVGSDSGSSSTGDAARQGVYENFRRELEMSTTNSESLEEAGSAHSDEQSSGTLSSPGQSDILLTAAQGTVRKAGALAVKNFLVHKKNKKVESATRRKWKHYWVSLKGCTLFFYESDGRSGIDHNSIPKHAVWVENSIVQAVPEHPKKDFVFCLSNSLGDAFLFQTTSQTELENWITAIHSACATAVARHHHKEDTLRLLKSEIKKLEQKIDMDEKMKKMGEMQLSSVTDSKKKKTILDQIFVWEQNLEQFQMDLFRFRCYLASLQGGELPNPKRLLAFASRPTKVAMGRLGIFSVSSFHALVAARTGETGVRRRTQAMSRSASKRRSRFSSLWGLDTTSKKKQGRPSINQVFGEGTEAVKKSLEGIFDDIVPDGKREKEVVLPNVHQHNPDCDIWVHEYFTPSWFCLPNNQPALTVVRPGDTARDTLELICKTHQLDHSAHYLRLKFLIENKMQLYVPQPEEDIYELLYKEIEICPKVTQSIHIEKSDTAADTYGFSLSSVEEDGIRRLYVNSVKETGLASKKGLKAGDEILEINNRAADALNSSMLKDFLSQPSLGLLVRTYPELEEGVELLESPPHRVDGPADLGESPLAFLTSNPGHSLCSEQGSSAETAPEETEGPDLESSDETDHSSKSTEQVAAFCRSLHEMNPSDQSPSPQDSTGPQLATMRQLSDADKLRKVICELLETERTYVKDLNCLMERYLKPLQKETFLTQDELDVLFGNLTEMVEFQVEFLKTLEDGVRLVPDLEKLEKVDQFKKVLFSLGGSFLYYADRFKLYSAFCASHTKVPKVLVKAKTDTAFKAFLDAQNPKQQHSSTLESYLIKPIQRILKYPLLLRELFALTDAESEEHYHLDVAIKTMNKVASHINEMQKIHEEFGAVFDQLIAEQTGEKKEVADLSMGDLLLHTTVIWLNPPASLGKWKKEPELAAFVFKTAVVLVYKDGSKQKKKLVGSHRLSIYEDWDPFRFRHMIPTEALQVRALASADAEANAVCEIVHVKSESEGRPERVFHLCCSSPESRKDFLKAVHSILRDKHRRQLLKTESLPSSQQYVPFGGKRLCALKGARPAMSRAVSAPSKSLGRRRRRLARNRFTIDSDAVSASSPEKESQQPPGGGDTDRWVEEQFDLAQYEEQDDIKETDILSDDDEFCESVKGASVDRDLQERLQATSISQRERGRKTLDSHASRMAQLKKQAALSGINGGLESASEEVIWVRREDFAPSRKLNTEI
T2 sequence (Q8K0D2 24-558 limits assumed): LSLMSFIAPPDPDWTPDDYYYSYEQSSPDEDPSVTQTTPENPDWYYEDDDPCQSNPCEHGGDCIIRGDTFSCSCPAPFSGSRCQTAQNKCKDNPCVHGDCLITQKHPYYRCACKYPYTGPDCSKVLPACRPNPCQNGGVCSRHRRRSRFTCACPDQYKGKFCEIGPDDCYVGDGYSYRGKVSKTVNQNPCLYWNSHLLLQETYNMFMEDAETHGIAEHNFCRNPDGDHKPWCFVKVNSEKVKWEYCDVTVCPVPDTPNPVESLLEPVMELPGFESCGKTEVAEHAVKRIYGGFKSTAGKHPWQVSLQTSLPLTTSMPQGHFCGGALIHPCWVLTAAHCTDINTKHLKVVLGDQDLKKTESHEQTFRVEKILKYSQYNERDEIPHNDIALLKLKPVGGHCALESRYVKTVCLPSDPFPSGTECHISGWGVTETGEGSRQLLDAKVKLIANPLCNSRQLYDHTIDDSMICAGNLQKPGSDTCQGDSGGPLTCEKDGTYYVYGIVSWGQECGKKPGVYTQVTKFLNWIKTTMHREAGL

With methyl-β-cyclodextrin the “inhibition of HA-induced changes in TER” value [1] was “abolished both HMW- and LMW-HA-induced changes in TER”, the “inhibition of HMW-HA induced cortical actin reorganization” value [2] was “HMW-HA induced cortical actin reorganization was inhibited” and the “inhibition of HGF-induced increases in EC barrier function (TER)” value [3] was “attenuated HGF-induced increases in human EC barrier function”. The “inhibition of HGF-induced Rac1 activation” value (Rac1) was “inhibited HGF-induced Rac1 activation” and the “inhibition of effects of HA on TER” value (Human pulmonary EC [4]) was “effects of HA on TER were inhibited”.

B1: dynamin 2 (other, human, UniProt P50570 1-870, looked up)
chain: MGNRGMEELIPLVNKLQDAFSSIGQSCHLDLPQIAVVGGQSAGKSSVLENFVGRDFLPRGSGIVTRRPLILQLIFSKTEHAEFLHCKSKKFTDFDEVRQEIEAETDRVTGTNKGISPVPINLRVYSPHVLNLTLIDLPGITKVPVGDQPPDIEYQIKDMILQFISRESSLILAVTPANMDLANSDALKLAKEVDPQGLRTIGVITKLDLMDEGTDARDVLENKLLPLRRGYIGVVNRSQKDIEGKKDIRAALAAERKFFLSHPAYRHMADRMGTPHLQKTLNQQLTNHIRESLPALRSKLQSQLLSLEKEVEEYKNFRPDDPTRKTKALLQMVQQFGVDFEKRIEGSGDQVDTLELSGGARINRIFHERFPFELVKMEFDEKDLRREISYAIKNIHGVRTGLFTPDLAFEAIVKKQVVKLKEPCLKCVDLVIQELINTVRQCTSKLSSYPRLREETERIVTTYIREREGRTKDQILLLIDIEQSYINTNHEDFIGFANAQQRSTQLNKKRAIPNQGEILVIRRGWLTINNISLMKGGSKEYWFVLTAESLSWYKDEEEKEKKYMLPLDNLKIRDVEKGFMSNKHVFAIFNTEQRNVYKDLRQIELACDSQEDVDSWKASFLRAGVYPEKDQAENEDGAQENTFSMDPQLERQVETIRNLVDSYVAIINKSIRDLMPKTIMHLMINNTKAFIHHELLAYLYSSADQSSLMEESADQAQRRDDMLRMYHALKEALNIIGDISTSTVSTPVPPPVDDTWLQSASSHSPTPQRRPVSSIHPPGRPPAVRGPTPGPPLIPVPVGAAASFSAPPIPSRPGPQSVFANSDLFPAPPQIPSRPVRIPPGIPPGVPSRRPPAAPSRPTIIRPAEPSLLD
notes: Immunoprecipitated with rabbit anti-dynamin 2 antibody from solubilized CEM fractions
B1: no binding (Tiam1).

B2: C1INH, murine (mouse lung) (other, UniProt P97290 23-504, looked up)
chain: DPEATSHSTQDPLEAQAKSRESFPERDDSWSPPEPTVLPSTWPTTSVAITITNDTMGKVANESFSQHSQPAAQLPTDSPGQPPLNSSSQPSTASDLPTQATTEPFCPEPLAQCSDSDRDSSEAKLSEALTDFSVKLYHAFSATKMAKTNMAFSPFSIASLLTQVLLGAGDSTKSNLESILSYPKDFACVHQALKGFSSKGVTSVSQIFHSPDLAIRDTYVNASQSLYGSSPRVLGPDSAANLELINTWVAENTNHKIRKLLDSLPSDTCLVLLNAVYLSAKWKITFEPKKMMAPFFYKNSMIKVPMMSSVKYPVAQFDDHTLKAKVGQLQLSHNLSFVIVVPVFPKHQLKDVEKALNPTVFKAIMKKLELSKFLPTYLTMPHIKVKSSQDMLSVMEKLEFFDFTYDLNLCGLTEDPDLQVSAMKHETVLELTESGVEAAAASAISFGRSLPIFEVQRPFLFLLWDQQHRFPVFMGRVYDPRG
notes: Detected with anti-C1INH antibody in anti-HABP2 immunoprecipitates of mouse lung homogenates
With B2 the “effect on EC barrier changes (TER) induced by LPS, LMW-HA, HABP2 and HMW-HA” value (Human pulmonary EC [5]) was “inhibited the EC barrier disrupting effects of LPS, LMW-HA and HABP2 while enhancing the barrier protective effects of HMW-HA” and the binding result [6] was “binds”.
